Measured values taken from US7585877B2, “Aminophenyl derivatives as selective androgen receptor modulators” (Acadia Pharmaceuticals, Inc., priority 2005, dated 2009).
Structures can show the parent of a compound that is named as a salt. Where two headings read alike, the source gives them in different places.

What was measured:
[1] = test system: Rat luteinizing hormone (LH) plasma levels; assay: In vivo activity in castrated rats: plasma luteinizing hormone (ELISA); conditions: castrated rats (FIG. 4)
Method: (§1) Test compounds of formula I are administered p.o. daily for two weeks to castrated male Sprague Dawley rats (n=3). The effects of the test compounds (1, 3, 10, 30 mg/kg) are compared to testosterone propionate (1 and 3 mg/kg s.c.; positive control) and vehicle (10% Tween80; negative control). Blood and wet weights of prostate gland and seminal vesicle are measured after sacrifice that occurs 24 hours after the last dose. Blood is collected in heparin collection tubes after sacrifice that occurred 24 hours after the last dose. Blood is centrifuged and plasma collected and plasma samples frozen.
Rat luteinizing hormone (LH) plasma levels are determined using an enzyme linked immunoabsorbent assay (ELISA) from Amersham as per manufacturer's instructions. The solid phase assay is based on the competition between unlabeled rLH and a fixed quantity of biotin labelled rLH for a limited amount of rLH specific antibody. A conjugate streptavidin/peroxidase allows for signal amplification and detection in presence of the substrate.

[2] = test system: castrated male Sprague Dawley rats; assay: In vivo activity in castrated rats: wet tissue weights; design: species or system rat
Method: as §1

Androgen AR receptor = biological target: T1, Androgen AR receptor (Homo sapiens, UniProt P10275); assay: Receptor Selection and Amplification Technology (R-SAT) functional receptor assay; type: cell-based; conditions: for Emax: read-out: % Efficacy
T1 construct: expressed in transfected cells; host or cells: NIH3T3 cells
T1 sequence (P10275 1-920): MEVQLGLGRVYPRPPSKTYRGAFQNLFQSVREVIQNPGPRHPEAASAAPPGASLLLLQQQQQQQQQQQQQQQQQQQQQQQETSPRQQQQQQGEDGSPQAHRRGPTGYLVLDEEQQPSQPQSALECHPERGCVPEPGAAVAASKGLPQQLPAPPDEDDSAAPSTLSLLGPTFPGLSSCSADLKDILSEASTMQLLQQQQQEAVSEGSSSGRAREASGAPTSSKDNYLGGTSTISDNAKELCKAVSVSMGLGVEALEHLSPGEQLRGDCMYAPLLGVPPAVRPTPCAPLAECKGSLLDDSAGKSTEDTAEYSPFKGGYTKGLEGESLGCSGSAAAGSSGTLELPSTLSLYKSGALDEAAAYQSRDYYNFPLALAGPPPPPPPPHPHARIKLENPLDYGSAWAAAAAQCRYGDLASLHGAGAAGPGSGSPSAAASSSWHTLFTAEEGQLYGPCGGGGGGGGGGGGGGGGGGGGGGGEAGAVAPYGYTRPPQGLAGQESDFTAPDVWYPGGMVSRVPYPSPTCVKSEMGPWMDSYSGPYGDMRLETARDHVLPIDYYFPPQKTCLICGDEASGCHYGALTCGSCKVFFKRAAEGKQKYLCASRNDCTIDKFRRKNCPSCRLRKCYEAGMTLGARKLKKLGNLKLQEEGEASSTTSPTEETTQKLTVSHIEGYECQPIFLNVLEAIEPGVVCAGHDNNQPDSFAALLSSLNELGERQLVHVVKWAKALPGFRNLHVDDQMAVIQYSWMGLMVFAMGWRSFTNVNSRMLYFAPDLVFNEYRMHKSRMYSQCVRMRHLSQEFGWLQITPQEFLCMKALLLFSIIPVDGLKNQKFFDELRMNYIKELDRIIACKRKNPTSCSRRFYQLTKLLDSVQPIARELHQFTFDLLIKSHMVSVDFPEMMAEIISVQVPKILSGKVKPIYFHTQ
Method: The functional receptor assay, Receptor Selection and Amplification Technology (R-SAT™), was used with minor modifications from the procedure described previously (Brann, M. R., U.S. Pat. No. 5,707,798, which is hereby incorporated herein by reference in its entirety) to screen compounds for efficacy at the Androgen AR receptor. Briefly, NIH3T3 cells were grown in roller bottles to 70-80% confluence. Cells were then transfected for 12-16 h with plasmid DNAs using Polyfect (Qiagen Inc.) as per the manufacturer's protocol. R-SAT assays were typically performed by transfecting 30 ug/bottle of receptor and 50 ug/bottle of β-galactosidase plasmid DNA. All receptor and helper constructs used were in mammalian expression vectors. Helpers are defined as signaling molecules that modulate both ligand-dependent and/or ligand-independent function of the AR receptor, typically co-activators.
NIH3T3 cells were transfected for 12-16 h, then trypsinized and frozen in DMSO. Frozen cells were later thawed, plated at 10,000-40,000 cells per well of a 96 well plate containing drug. Cells were then grown in a humidified atmosphere with 5% ambient CO2 for five days. Media was then removed from the plates and marker gene activity was measured by the addition of the β-galactosidase substrate o-nitrophenyl β-D-galactopyranoside (ONPG, in PBS with 5% NP-40). The resulting colorimetric reaction was measured in a spectrophotometric plate reader (Titertek Inc.) at […]. All data were analyzed using the computer program XLFit (IDBSm).

[3] = R-SAT, transfected NIH3T3 cells

**Q.** For `CCC(=O)O[C@H]1CC[C@H]2[C@@H]3CCC4=CC(=O)CC[C@]4(C)[C@H]3CC[C@]12C` [testosterone propionate, reference compound], which “plasma LH levels” value ([1]; 1 mg/kg, s.c. for 14 days) is on record?
**A.** The value was “restored LH levels to those obtained in naive rats”.

**Q.** And the “prostate wet tissue weight as compared to vehicle treatment” value ([2]; 1 mg/kg daily s.c. for two weeks, castrated rats (FIG. 1))?
**A.** Its value is “significant increases”.

**Q.** And the “seminal vesicle wet tissue weight as compared to vehicle treatment” value ([2]; 1 mg/kg daily s.c. for two weeks, castrated rats (FIG. 2))?
**A.** The value was “significant increases”.

**Q.** What about the “levator ani muscle wet tissue weight as compared to vehicle treatment” value ([2]; 1 mg/kg daily s.c. for two weeks, castrated rats (FIG. 3)) of the same molecule?
**A.** Its value is “significant increases”.

**Q.** What does the source list for `Cc1c(N2[C@@H]3CC[C@H]2C[C@@H](O)C3)ccc([N+](=O)[O-])c1Cl` [173FBA73bL, endo-8-(3-chloro-2-methyl-4-nitrophenyl)-8-azabicyclo[3.2.1]octan-3-ol]?
**A.** Emax (Androgen AR receptor; [3]): 80%; EC50 (Androgen AR receptor; R-SAT, transfected NIH3T3 cells, read-out: pEC50 (converted)): 3.16 nM

**Q.** What does the source list for `Cc1c(N2[C@@H]3CC[C@H]2C[C@@](C)(O)C3)ccc(C#N)c1Cl` [198RL26, 2-Chloro-4-(3-endo-hydroxy-3-exo-methyl-8-azabicyclo[3.2.1]oct-8-yl)-3-methylbenzonitrile hydrochloride]?
**A.** EC50 (Androgen AR receptor): 1.58 nM; Emax (Androgen AR receptor; [3]): 79%; plasma LH levels ([1]; 10 mg/kg p.o. for 14 days): complete reversal; plasma LH levels ([1]; various doses, p.o. for 14 days): dose-dependent suppression of plasma LH levels; wet tissue weights (prostate, seminal vesicle, levator ani muscle) ([2]; 3 mg/kg daily s.c. (so in the source) for two weeks, castrated rats): did not appear to significantly alter wet tissue weights; dose relative to TP at which negative side effects (increased seminal vesicle and prostate size) become evident ([2]; castrated rats, two weeks daily dosing): at least 100 × of TP; wet tissue weights (prostate, seminal vesicle, levator ani muscle) ([2]; higher doses (3 and 10 mg/kg) daily, castrated rats): appeared to significantly increase wet tissue weights, however, not to the extent of TP

**Q.** How did the EC50 (Androgen AR receptor) turn out when `Cc1c(N2[C@@H]3CC[C@H]2C[C@@H](O)C3)ccc(C#N)c1Cl` [165RL90, 2-Chloro-4-(3-endo-hydroxy-8-azabicyclo[3.2.1]octan-8-yl)-3-methylbenzonitrile, hydrochloride] was run?
**A.** The EC50 was 2 nM.

**Q.** And the Emax (Androgen AR receptor; [3])?
**A.** Its Emax is 81%.
